The values below come from patent US8957064B2, “Fused pyrimidines” (Bayer Intellectual Property GmbH, priority 2009, dated 2015).

In general, melting point refers to the temperature of the solid-liquid transition. What is called IC50 is the concentration needed to halve the response being measured.

The target of data set [1] is His-tagged human recombinant kinase full-length Akt2 activated by PDK1 (Homo sapiens (Human), UniProt P31751). In words: Akt2 kinase assay (Akt2 TR-FRET assay, Biological Assay 2.0). It is filed as biochemical. Particulars: 10 μM ATP, 1 μM biotinylated peptide substrate, 60 min at 22° C. The procedure, abridged: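 Compound was pre-incubated with enzyme (~0.2 ng/µl final) for 15 min at 22 °C in Tris pH 7.5, 5 mM MgCl2, then reacted 60 min with 10 µM ATP and 1 µM biotinylated peptide. Phosphopeptide was detected by TR-FRET (665/622 nm ratio). Data were normalised to no-inhibitor (0%) and no-enzyme (100%) controls.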
A general note: TR-FRET usually uses a lanthanide donor and a delayed reading to cut background.

The target in data set [2] is His-tagged human recombinant kinase full-length Akt1 (Homo sapiens (Human), UniProt P31749). The data set can be described thus: Akt1 kinase assay (Akt1 TR-FRET assay, Biological Assay 1.0). The class given is biochemical. As to conditions: 10 μM ATP, 1 μM biotinylated peptide substrate, 60 min at 22° C. The procedure, abridged:
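Insect-cell-expressed full-length His-Akt1 (~0.05 ng/μl) preincubated 15 min with compound, then reacted 60 min at 22 °C with 10 μM ATP and 1 μM biotinylated peptide (final), pH 7.5. Phosphopeptide detected by HTRF (665/620 nm ratio). Data normalised to no-inhibitor and no-enzyme controls.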

Some results are limits rather than exact numbers.

Sequence of His-tagged human recombinant kinase full-length Akt2 activated by PDK1 (P31751 whole entry): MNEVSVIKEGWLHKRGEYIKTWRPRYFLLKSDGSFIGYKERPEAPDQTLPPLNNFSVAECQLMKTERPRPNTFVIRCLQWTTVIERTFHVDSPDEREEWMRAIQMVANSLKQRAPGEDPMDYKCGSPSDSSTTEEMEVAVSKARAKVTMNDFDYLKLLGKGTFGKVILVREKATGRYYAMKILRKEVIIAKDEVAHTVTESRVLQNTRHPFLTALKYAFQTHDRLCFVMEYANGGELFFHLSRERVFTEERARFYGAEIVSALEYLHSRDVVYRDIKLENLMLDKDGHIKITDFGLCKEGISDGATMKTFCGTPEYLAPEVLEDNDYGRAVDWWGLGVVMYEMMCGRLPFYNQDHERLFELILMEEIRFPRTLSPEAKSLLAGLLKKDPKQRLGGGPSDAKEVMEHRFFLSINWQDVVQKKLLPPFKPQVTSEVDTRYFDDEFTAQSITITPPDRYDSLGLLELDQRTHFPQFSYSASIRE
Sequence of His-tagged human recombinant kinase full-length Akt1 (P31749 whole entry): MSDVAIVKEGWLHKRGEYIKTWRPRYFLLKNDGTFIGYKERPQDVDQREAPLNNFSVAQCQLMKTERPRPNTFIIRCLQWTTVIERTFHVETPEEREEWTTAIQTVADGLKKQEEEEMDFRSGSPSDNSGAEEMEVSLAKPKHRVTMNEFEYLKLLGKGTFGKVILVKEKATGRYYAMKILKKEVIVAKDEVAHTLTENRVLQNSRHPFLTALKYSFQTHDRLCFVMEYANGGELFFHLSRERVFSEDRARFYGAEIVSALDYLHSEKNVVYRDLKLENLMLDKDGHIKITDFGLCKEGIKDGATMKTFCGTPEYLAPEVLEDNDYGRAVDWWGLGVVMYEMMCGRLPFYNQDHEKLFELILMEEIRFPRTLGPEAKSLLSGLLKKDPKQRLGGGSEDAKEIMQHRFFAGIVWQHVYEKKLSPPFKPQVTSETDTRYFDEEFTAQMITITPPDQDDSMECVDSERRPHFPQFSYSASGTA

`Cc1nc2nc(-c3ccc(CN4CC(c5n[nH]c(-c6ccccn6)n5)C4)cc3)c(-c3ccccc3)c(NC(C)C)n2n1` [Example 45.2, isopropyl-(2-methyl-6-phenyl-5-{4-[3-(5-pyridin-2-yl-1H-[1,2,4]triazol-3-yl)-azetidin-1-ylmethyl]-phenyl}-[1,2,4]triazolo[1,5-a]pyrimidin-7-yl)-amine] gave a melting point of 176.8 °C. With `Cc1nc2nc(-c3ccc(CN4CCC(c5nc6ccc(F)cc6[nH]5)CC4)cc3)c(-c3ccccc3)cn2n1` [Example 13.0, 5-{4-[4-(6-fluoro-1H-benzoimidazol-2-yl)-piperidin-1-ylmethyl]-phenyl}-2-methyl-6-phenyl-[1,2,4]triazolo[1,5-a]pyrimidine], the results for the IC50 in data set [1] and in data set [2] were 228 nM and 112 nM, respectively.

On to `Cc1cn2cc(-c3ccccc3)c(-c3ccc(CN4CC(c5n[nH]c(-c6ccccn6)n5)C4)cc3)nc2n1` [Example 56.0, 2-methyl-6-phenyl-7-{4-{3-[5-(pyridine-2-yl)-1H-[1,2,4]triazole-3-yl)-azetidine-1-ylmethyl]-phenyl}-imidazo[1,2-a]pyrimidine], for which the IC50 in data set [1] worked out at 47 nM; in data set [2], 10 nM.

As to `Cc1cccc(-c2nc(C3CN(Cc4ccc(-c5nc6nc(C7CC7)nn6cc5-c5ccccc5)cc4)C3)n[nH]2)n1` [Example 41.0, 2-cyclopropyl-5-(4-{3-[5-(6-methylpyridine-2-yl)-1H-[1,2,4]triazole-3-yl]-azetidine-1-ylmethyl}-phenyl)-6-phenyl-[1,2,4]triazolo[1,5-a]pyrimidine], the IC50 in data set [1] and in data set [2] was 10 nM throughout. As for `Cc1nc2nc(-c3ccc(CN4CCC(n5ncc6c(N)ncnc65)CC4)cc3)c(-c3ccccc3)cn2n1` [Example 22.0, 1-{1-[4-(2-methyl-6-phenyl-[1,2,4]-triazolo[1,5-a]pyrimidin-5-yl)benzyl]-piperidin-4-yl}-1H-pyrazolo[3,4-d]pyrimidin-4-ylamine], the IC50 in data set [1] is 417 nM; in data set [2], 288 nM.

Consider `CC(C)Nc1c(-c2ccccc2)c(-c2ccc(CN3CC(c4n[nH]c(-c5ccccn5)n4)C3)cc2)nc2nccn12` [Example 66.0, isopropyl-(6-phenyl-7-{4-{3-[5-(pyridine-2-yl)-1H-[1,2,4]triazole-3-yl)-azetidine-1-ylmethyl]-phenyl}-imidazo[1,2-a]pyrimidin-5-yl)-amine], for which the values for the half-maximal inhibitory concentration (IC50) in data set [1] and in data set [2] were 53 nM and 25 nM, respectively. On to `Cc1cccc(-c2nc(C3CCN(Cc4ccc(-c5nc6ncc(Br)n6cc5-c5ccc(F)cc5)cc4)CC3)n[nH]2)n1` [Example 53.0, 3-bromo-6-(4-fluorophenyl)-7-(4-{4-[5-(6-methylpyridine-2-yl)-1H-[1,2,4]triazole-3-yl]-piperidine-1-ylmethyl}-phenyl)-imidazo[1,2-a]pyrimidine], for which the values for the half-inhibitory concentration (IC50) in data set [1] and in data set [2] were 7 nM and 11 nM, respectively. In the case of `Fc1cnc2nc(-c3ccc(CN4CC(c5nnc(-c6ccccn6)[nH]5)C4)cc3)c(-c3ccccc3)cn12` [Example 4.0, 3-fluoro-6-phenyl-7-(4-{[3-(5-pyridin-2-yl-1,2,4-triazol-3-yl)azetidin-1-yl]methyl}phenyl)imidazo[1,2-a]pyrimidine], the half-maximal inhibitory concentration (IC50) in data set [1] and in data set [2] was less than 50 nM in each case.

Regarding `CC(C)c1nc2nc(-c3ccc(CN4CCC(c5cnc6ccccc6n5)CC4)cc3)c(-c3ccccc3)cn2n1` [Example 30.0, 2-{1-[4-(2-isopropyl-6-phenyl-[1,2,4]triazolo[1,5-a]pyrimidin-5-yl)benzyl]-piperidine-4-yl}-quinoxaline], the IC50 in data set [1] was found to be 509 nM; in data set [2] it was 6700 nM.

`OCc1cnn2cc(-c3c(F)cccc3F)c(-c3ccc(CN4CC(c5n[nH]c(-c6ccccn6)n5)C4)cc3)nc12` [Example 62.0, (6-(2,6-difluorophenyl)-5-{4-[3-[5-pyridine-2-yl-1H-[1,2,4]triazole-3-yl)-azetidine-1-ylmethyl]-phenyl}-pyrazolo[1,5-a]pyrimidin-3-yl)-methanol]: the IC50 in data set [1] was determined as 801 nM; in data set [2], 55 nM.
